Literature values as cited in US8961928B2, “Ligand and metal complex having the same” (National Chiao Tung University, priority 2012, dated 2015).
Read-outs that look alike come from different tables or passages of the source.

| SMILES | Relaxivity r1 (pH 7.6 ± 0.1, data from Inorg. Chem., 2001, 40, 2170-2176) | Relaxivity r1 (pH 7.5 ± 0.1, data from Inorg. Chem., 2005, 44, 382) |
| --- | --- | --- |
| O=C([O-])CN(CCN(CC(=O)[O-])CC(=O)[O-])CCN(CC(=O)[O-])CC(=O)[O-].[Gd+3] [[Gd(DTPA)]^2−] | 3.89 ± 0.03 mM⁻¹ s⁻¹ |  |
| O=C([O-])CN(CCCN(CC(=O)[O-])CC(=O)[O-])CCN(CC(=O)[O-])CC(=O)[O-].[Gd+3] [[Gd(TTDA)]^2−] |  | 3.85 ± 0.03 mM⁻¹ s⁻¹ |
